Among the data in patent publication US12678446B2 (PFIZER INC., priority 2020, dated 2026) are EC50 and CC50 values, retold here.

The subject of series [1] is RSV (RSV A2 ECACC, 0709161v). The series is described as follows: RSV plaque reduction assay. The series is classed as cell-based, respiratory syncytial virus. The note with it: human respiratory syncytial virus, HepG2, read-out: RSV A2 Plaque EC50, RSV A2 in Hep-G2 cells; mean of at least two experiments unless noted (n = 1). The method, boiled down:
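Hep-G2 monolayers infected with 100 PFU/well RSV A2 premixed with eight serial compound dilutions (2 h, 37° C.), then kept 2 days under CMC overlay with compound in DMEM/2% FBS. Plaques immunostained (HRP/TrueBlue) and counted; % infection versus virus control gives EC50, mean of at least two experiments, rounded.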
On the technique in general: In a plaque reduction assay, fewer plaques than in the control indicate reduced infectivity or spread.

A further series in a line: cell toxicity CC50. The series is classed as cell-based. The note with it: human; Hep-G2 cells; mean of at least two experiments; read-out: Cell Cytotoxicity CC50.

For the molecule `O=C(N[C@H]1N=C(c2ccccc2)c2cccc(F)c2NC1=O)c1c(-c2ccccc2F)nn2c1OCC(O)C2` (stereo partly drawn) [Example 160, 2-(2-Fluorophenyl)-6-hydroxy-N-[(3S)-9-fluoro-2-oxo-5-phenyl-1,3-dihydro-1,4-benzodiazepin-3-yl]-6,7-dihydro-5H-pyrazolo[5,1-b][1,3]oxazine-3-carboxamide], the EC50 (usually the concentration giving half of the maximal effect) in series [1] was 0.148 µM. Further, the 50% cytotoxic concentration (CC50) (in general, the concentration that lowers cell viability or growth by half) in the series “cell toxicity CC50” was more than 25 µM.
Turning to `C[C@@H]1CCn2nc(C3CCN(S(C)(=O)=O)CC3)c(C(=O)N[C@H]3N=C(c4ccccc4)c4cccc(F)c4NC3=O)c2O1` [Example 161, (5R)-N-[(3S)-9-fluoro-2-oxo-5-phenyl-1,3-dihydro-1,4-benzodiazepin-3-yl]-5-methyl-2-(1-methylsulfonylpiperi-din-4-yl)-6,7-dihydro-5H-pyrazolo[5,1-b][1,3]oxazine-3-carboxamide], in series [1], the EC50 was found to be 0.054 µM. The cytotoxic concentration (CC50) in “cell toxicity CC50” is more than 25 µM.
For `CC(C)Nc1ccc(-c2nn3c(c2C(=O)N[C@H]2N=C(c4ccccc4)c4cccc(F)c4NC2=O)OCCC3)c(F)n1` [Example 4, N-[(3S)-9-Fluoro-2-oxo-5-phenyl-1,3-dihydro-1,4-benzodiazepin-3-yl]-2-[2-fluoro-6-(propan-2-ylamino)pyridin-3-yl]-6,7-dihydro-5H-pyrazolo[5,1-b][1,3]oxazine-3-carboxamide], in series [1], the EC50 was 0.029 µM. Further, in “cell toxicity CC50”, the CC50 is more than 25 µM.
For `CN(C)CC1COc2c(C(=O)N[C@H]3N=C(c4ccccc4)c4cccc(F)c4NC3=O)c(-c3ccccc3F)nn2C1` (single isomer, unassigned) [Example 171-2, (6S*)-6-[(Dimethylamino)methyl]-N-[(3S)-9-fluoro-2-oxo-5-phenyl-1,3-dihydro-1,4-benzodiazepin-3-yl]-2-(2-fluorophenyl)-6,7-dihydro-5H-pyrazolo[5,1-b][1,3]oxazine-3-carboxamide], the concentration giving a half-maximal response (EC50) in series [1] stood at 0.056 µM. In addition, the half-maximal cytotoxic concentration (CC50) in “cell toxicity CC50” was more than 25 µM.
For `CCS(=O)(=O)N1CCC(c2nn3c(c2C(=O)N[C@H]2N=C(c4ccccc4)c4cccc(F)c4NC2=O)O[C@H](C)CC3)CC1` [Example 201, (5R)-2-(1-Ethylsulfonylpiperidin-4-yl)-N-[(3S)-9-fluoro-2-oxo-5-phenyl-1,3-dihydro-1,4-benzodiazepin-3-yl]-5-methyl-6,7-dihydro-5H-pyrazolo[5,1-b][1,3]oxazine-3-carboxamide] the same measures were 0.049 µM and more than 25 µM.
On to `Cc1cnc(F)c(-c2nn3c(c2C(=O)N[C@H]2N=C(c4ccccc4)c4ccccc4NC2=O)OCCC3)c1` [Example 42, 2-(2-Fluoro-5-methylpyridin-3-yl)-N-[(3S)-2-oxo-5-phenyl-1,3-dihydro-1,4-benzodiazepin-3-yl]-6,7-dihydro-5H-pyrazolo[5,1-b][1,3]oxazine-3-carboxamide], for which, in series [1], the EC50 turned out to be 0.124 µM. For the same molecule, the CC50 in “cell toxicity CC50” is more than 25 µM.
With `CC1(Cn2cc(-c3nn4c(c3C(=O)N[C@H]3N=C(c5ccccc5)c5cccc(F)c5NC3=O)OCCC4)cn2)COC1` [Example 104, N-[(3S)-9-fluoro-2-oxo-5-phenyl-1,3-dihydro-1,4-benzodiazepin-3-yl]-2-[1-[(3-methyloxetan-3-yl)methyl]pyrazol-4-yl]-6,7-dihydro-5H-pyrazolo[5,1-b][1,3]oxazine-3-carboxamide], in series [1], the EC50 worked out at 0.128 µM. In “cell toxicity CC50”, the 50% cytotoxic concentration (CC50) was more than 25 µM.
With `CS(=O)(=O)c1ccc(-c2nn3c(c2C(=O)N[C@H]2N=C(c4ccccc4)c4cccc(F)c4NC2=O)OCCC3)c(F)c1` [Example 135, 2-(2-Fluoro-4-methylsulfonylphenyl)-N-[(3S)-9-fluoro-2-oxo-5-phenyl-1,3-dihydro-1,4-benzodiazepin-3-yl]-6,7-dihydro-5H-pyrazolo[5,1-b][1,3]oxazine-3-carboxamide], in series [1], the EC50 worked out at 0.015 µM. For the same molecule, the CC50 in “cell toxicity CC50” was more than 25 µM.
Consider `CCC1COc2c(C(=O)N[C@H]3N=C(c4ccccc4)c4cccc(F)c4NC3=O)c(-c3ccccc3F)nn2C1` (stereo partly drawn) [Example 11, 6-Ethyl-N-[(3S)-9-fluoro-2-oxo-5-phenyl-2,3-dihydro-1H-1,4-benzodiazepin-3-yl]-2-(2-fluorophenyl)-5H,6H,7H-pyrazolo[3,2-b][1,3]oxazine-3-carboxamide], for which the half-maximal effective concentration (EC50) in series [1] came out at 0.033 µM. The CC50 in “cell toxicity CC50” was more than 25 µM.
Regarding `CCN(CC)CC1COc2c(C(=O)N[C@H]3N=C(c4ccccc4)c4cccc(F)c4NC3=O)c(-c3ccccc3F)nn2C1` (stereo partly drawn) [Example 164, 6-(Diethylaminomethyl)-N-[(3S)-9-fluoro-2-oxo-5-phenyl-1,3-dihydro-1,4-benzodiazepin-3-yl]-2-(2-fluorophenyl)-6,7-dihydro-5H-pyrazolo[5,1-b][1,3]oxazine-3-carboxamide], in series [1], the half-maximal effective concentration (EC50) amounted to 0.087 µM. For the same molecule, the CC50 in “cell toxicity CC50” was more than 25 µM.
Take `C[C@@H]1CCn2nc(-c3ccc(CO)cc3F)c(C(=O)N[C@H]3N=C(c4ccccc4)c4ccccc4NC3=O)c2O1` [Example 154, (5R)-2-[2-Fluoro-4-(hydroxymethyl)phe-nyl]-5-methyl-N-[(3S)-2-oxo-5-phenyl-1,3-dihydro-1,4-benzodiazepin-3-yl]-6,7-dihydro-5H-pyrazolo[5,1-b][1,3]oxazine-3-carboxamide]: the concentration for a half-maximal effect (EC50) in series [1] worked out at 0.091 µM. For the same molecule, the CC50 in “cell toxicity CC50” was more than 25 µM.
As to `C[C@@H]1CCn2nc(Nc3ccc(F)cc3)c(C(=O)N[C@H]3N=C(c4ccccc4)c4cccc(F)c4NC3=O)c2O1` [Example 97, (5R)-2-(4-Fluoroanilino)-N-[(3S)-9-fluoro-2-oxo-5-phenyl-1,3-dihydro-1,4-benzodiazepin-3-yl]-5-methyl-6,7-dihydro-5H-pyrazolo[5,1-b][1,3]oxazine-3-carboxamide], in series [1], the EC50 is 0.439 µM. Also, the half-maximal cytotoxic concentration (CC50) in the series “cell toxicity CC50” was more than 25 µM.
For `C[C@@H]1CCn2nc(-c3cnn(CCN(C)C)c3)c(C(=O)N[C@H]3N=C(c4ccccc4)c4cccc(F)c4NC3=O)c2O1` [Example 165, (5R)-2-[1-[2-(Dimethylamino)ethyl]pyrazol-4-yl]-N-[(3S)-9-fluoro-2-oxo-5-phenyl-1,3-dihydro-1,4-benzodiazepin-3-yl]-5-methyl-6,7-dihydro-5H-pyrazolo[5,1-b][1,3]oxazine-3-carboxamide], in series [1], the EC50 stood at 0.349 µM. Further, in “cell toxicity CC50”, the CC50 was more than 25 µM.
Take `O=C(N[C@H]1N=C(c2ccccc2)c2ccccc2NC1=O)c1c(-c2ccccc2F)nn2c1OCC1(COC1)C2` [Example 29]: the EC50 in series [1] came out at 0.078 µM. Further, the CC50 in “cell toxicity CC50” is more than 25 µM.
With `O=C(N[C@H]1N=C(c2ccccc2)c2cccc(F)c2NC1=O)c1c(-c2ccccc2F)nn2c1OCC1(CCC1)C2` [Example 185, 2-(2-Fluorophenyl)-N-[(3S)-9-fluoro-2-oxo-5-phenyl-1,3-dihydro-1,4-benzodiazepin-3-yl]spiro[5,7-dihydropyrazolo[5,1-b][1,3]oxazine-6,1′-cyclobutane]-3-carboxamide], the EC50 in series [1] was 0.032 µM. The CC50 in the series “cell toxicity CC50” was more than 25 µM.
For the molecule `CCc1ccc(-c2nn3c(c2C(=O)N[C@H]2N=C(c4ccccc4)c4ccccc4NC2=O)O[C@H](C)CC3)c(F)c1` [Example 54], the concentration for a half-maximal effect (EC50) in series [1] amounted to 0.015 µM. Besides, the CC50 in the series “cell toxicity CC50” was more than 25 µM.
`CCc1ccc(-c2nn3c(c2C(=O)N[C@H]2N=C(c4ccccc4)c4ccccc4NC2=O)O[C@H](C)CC3)c(C)n1` [Example 65, (5R)-2-(6-Ethyl-2-methyl-3-pyridyl)-5-methyl-N-[(3S)-2-oxo-5-phenyl-1,3-dihydro-1,4-benzodiazepin-3-yl]-6,7-dihydro-5H-pyrazolo[5,1-b][1,3]oxazine-3-carboxamide]: the EC50 in series [1] came to 0.084 µM. In addition, the CC50 in “cell toxicity CC50” is more than 25 µM.
As to `Cc1cc(-c2nn3c(c2C(=O)N[C@H]2N=C(c4ccccc4)c4cccc(F)c4NC2=O)O[C@H](C)CC3)c(F)cn1` [Example 79, (5R)-2-(5-Fluoro-2-methylpyridin-4-yl)-N-[(3S)-9-fluoro-2-oxo-5-phenyl-1,3-dihydro-1,4-benzodiazepin-3-yl]-5-methyl-6,7-dihydro-5H-pyrazolo[5,1-b][1,3]oxazine-3-carboxamide], the EC50 in series [1] was 0.115 µM. Moreover, in the series “cell toxicity CC50”, the CC50 is more than 25 µM.
Consider `CCc1ccc(-c2nn3c(c2C(=O)N[C@H]2N=C(c4ccccc4)c4ccccc4NC2=O)O[C@@H](C)CC3)cn1` [Example 132, (5S)-2-(6-Ethylpyridin-3-yl)-5-methyl-N-[(3S)-2-oxo-5-phenyl-1,3-dihydro-1,4-benzodiazepin-3-yl]-6,7-dihydro-5H-pyrazolo[5,1-b][1,3]oxazine-3-carboxamide], for which, in series [1], the EC50 was determined as 0.072 µM. Also, the CC50 in the series “cell toxicity CC50” was more than 25 µM.
In the same order, the values of `NC(=O)c1ccc(-c2nn3c(c2C(=O)N[C@H]2N=C(c4ccccc4)c4cccc(F)c4NC2=O)OCCC3)c(F)c1` [Example 142, 2-(4-Carbamoyl-2-fluorophenyl)-N-[(3S)-9-fluoro-2-oxo-5-phenyl-1,3-dihydro-1,4-benzodiazepin-3-yl]-6,7-dihydro-5H-pyrazolo[5,1-b][1,3]oxazine-3-carboxamide] are 0.282 µM and more than 25 µM.
As for `CN(C)CC1CCn2nc(-c3ccccc3F)c(C(=O)N[C@H]3N=C(c4ccccc4)c4cccc(F)c4NC3=O)c2O1` (stereo partly drawn) [Example 166, 5-[(Dimethylamino)methyl]-N-[(3S)-9-fluoro-2-oxo-5-phenyl-1,3-dihydro-1,4-benzodiazepin-3-yl]-2-(2-fluorophenyl)-6,7-dihydro-5H-pyrazolo[5,1-b][1,3]oxazine-3-carboxamide], the 50% effective concentration (EC50) in series [1] came to 0.201 µM. For the same molecule, the half-maximal cytotoxic concentration (CC50) in “cell toxicity CC50” is more than 25 µM.
For `O=C(N[C@H]1N=C(c2ccccc2)c2cccc(F)c2NC1=O)c1c(-c2cccnc2)nn2c1OCCC2` [Example 17, N-[(3S)-9-Fluoro-2-oxo-5-phenyl-1,3-dihydro-1,4-benzodiazepin-3-yl]-2-pyridin-3-yl-6,7-dihydro-5H-pyrazolo[5,1-b][1,3]oxazine-3-carboxamide] the same measures were 0.18 µM and more than 25 µM.
